Experimental data as given in ChEMBL document CHEMBL4765274, “The development of advanced structural framework as multi-target-directed ligands for the treatment of Alzheimer's disease” (Eur J Med Chem, 2020).
Calls of active or inactive are those of the source. The calls are words filed in the database; no cut-off is given here.

Tests used:
[1] = molecular target: Cholinesterase (Homo sapiens, UniProt P06276); assay: Inhibition of human serum BChE by Ellman's method; format: cell-free
[2] = Inhibition of self-induced amyloid beta (1 to 42 residues) (unknown origin) aggregation by thioflavin T based fluorescence assay; parameters: species or system Homo sapiens; conditions: read-out: IC50
[3] = Inhibition of Cu2+-induced amyloid beta (1 to 42 residues) (unknown origin) aggregation at 25 uM after 24 hrs by thioflavin-T fluorescence method relative to control
[4] = system: PC-12; assay: Neuroprotective activity against H2O2-induced cytotoxicity in rat PC-12 cells assessed as increase in cell viability preincubated for 2 hrs followed by H2O2 addition and measured after 24 hrs by MTT assay; format: functional, cell-based; conditions: dose 1-10 µM, time 26.0 hrs
[5] = Toxicity in 2 dpf zebra fish assessed as pericardial edema at 25 ug/ml after 3 days relative to control; parameters: species or system Danio rerio; conditions: zebrafish, 72 h, at 25 µg/mL, time 3 day
[6] = Metal chelating activity assessed as Cu2+-compound complex formation in PBS buffer at pH 7.4 at 37.5 uM by UV-Visible spectra analysis
[7] = Metal chelating activity assessed as Zn2+-compound complex formation in water at 37.5 uM by UV-Visible spectra analysis
[8] = system: HT-22; assay: Cytotoxicity against mouse HT-22 cells assessed as reduction in cell viability after 24 hrs by MTT assay; format: cell-based; conditions: HT-22, 24 h
[9] = system: HT-22; assay: Activation of ubiquitin-proteasome system in mouse HT-22 cells expressing pRK5-GFP-Tau assessed as increase in tau degradation by measuring reduction in GFP level after 24 hrs by fluorescence microscopic method; format: cell-based; conditions: filed as activator, dose 2.5-20 µM
[10] = system: HT-22; assay: Activation of ubiquitin-proteasome system in mouse HT-22 cells expressing pRK5-GFP-Tau P301L mutant assessed as increase in tau degradation by measuring reduction in GFP level at 2.5 to 20 uM after 24 hrs by Western blot analysis; format: cell-based; conditions: filed as activator, dose 2.5-20 µM
[11] = system: HT-22; assay: Activation of ubiquitin-proteasome system in mouse HT-22 cells expressing pEGFP-N1-APP assessed as increase in APP degradation by measuring reduction in GFP level at 2.5 to 20 uM after 24 hrs by fluorescence microscopic method; format: cell-based; conditions: filed as activator, dose 2.5-20 µM
[12] = system: HT-22; assay: Activation of ubiquitin-proteasome system in mouse HT-22 cells expressing YFP-CLI assessed as reduction in GFP level at 10 uM after 24 hrs by flow cytometric analysis; format: cell-based; conditions: filed as activator
[13] = system: U-87MG ATCC; assay: Induction of autophagy in human U87 cells stably transfected GFP-LC3 assessed as increase in GFP-LC3 puncta formation at 10 uM after 24 hrs by fluorescence microscopic method; format: functional, cell-based
[14] = Toxicity in 2 dpf zebra fish assessed as yolk sac absorption delay at 2.78 ug/ml after 3 days relative to control; parameters: species or system Danio rerio; conditions: zebrafish, 72 h, at 2.78 µg/mL, time 3 day
[15] = Toxicity in 2 dpf zebra fish assessed as dark brown liver at 8.33 ug/ml after 3 days relative to control; parameters: species or system Danio rerio; conditions: zebrafish, 72 h, at 8.33 µg/mL, time 3 day
[16] = Toxicity in 2 dpf zebra fish assessed as misshapen brain at 25 ug/ml after 3 days relative to control; format: tissue-based, Danio rerio; conditions: zebrafish, 72 h, at 25 µg/mL, time 3 day
[17] = Toxicity in 2 dpf zebra fish assessed as short or misshapen jaw at 25 ug/ml after 3 days relative to control; parameters: species or system Danio rerio; conditions: zebrafish, 72 h, at 25 µg/mL, time 3 day
[18] = Toxicity in 2 dpf zebra fish assessed as change in body shape at 25 ug/ml after 3 days relative to control; parameters: species or system Danio rerio; conditions: zebrafish, 72 h, at 25 µg/mL, time 3 day
[19] = Toxicity in 3 dpf zebra fish assessed as mortality at 12.5 ug/ml (reference value: 0%); parameters: species or system Danio rerio; conditions: zebrafish, at 12.5 µg/mL, read-out: Activity
[20] = Toxicity in 3 dpf zebra fish assessed as mortality at 100 ug/ml (reference value: 0%); parameters: species or system Danio rerio; conditions: zebrafish, at 100 µg/mL, read-out: Activity
[21] = Toxicity in 3 dpf zebra fish assessed as mortality at 200 ug/ml (reference value: 0%); parameters: species or system Danio rerio; conditions: zebrafish, at 200 µg/mL, read-out: Activity
[22] = species on record: Danio rerio; assay: Antialzheimer activity in Alcl3-induced zebra fish AD model assessed as increase in motility; format: functional, organism-based
[23] = species on record: Danio rerio; assay: Antialzheimer activity in amyloid beta (1 to 40 residues)-induced zebra fish AD model assessed as reduction in vascular injury at 0.26 ug/ml relative to control; format: functional; parameters: scale not given: the % may be the effect or the level left; conditions: dose 0.26 µg/ml
[24] = system: Mus musculus; assay: Antialzheimer activity in scopolamine-induced Kunming mouse model of memory impairment assessed as Q30 bases ratio (QC data) in brain hippocampus at 5 mg/kg , po by illumina sequencing method (reference value: 96.67%); format: functional
[25] = Drug metabolism in mouse blood assessed as metabolite formation by UPLC-TOF analysis; format: ADME, tissue-based
[26] = Drug metabolism in human liver microsomes assessed as metabolite formation by UPLC-TOF analysis; format: ADME, Microsome

Sequence of Cholinesterase (P06276 whole entry, the tested form may be a part): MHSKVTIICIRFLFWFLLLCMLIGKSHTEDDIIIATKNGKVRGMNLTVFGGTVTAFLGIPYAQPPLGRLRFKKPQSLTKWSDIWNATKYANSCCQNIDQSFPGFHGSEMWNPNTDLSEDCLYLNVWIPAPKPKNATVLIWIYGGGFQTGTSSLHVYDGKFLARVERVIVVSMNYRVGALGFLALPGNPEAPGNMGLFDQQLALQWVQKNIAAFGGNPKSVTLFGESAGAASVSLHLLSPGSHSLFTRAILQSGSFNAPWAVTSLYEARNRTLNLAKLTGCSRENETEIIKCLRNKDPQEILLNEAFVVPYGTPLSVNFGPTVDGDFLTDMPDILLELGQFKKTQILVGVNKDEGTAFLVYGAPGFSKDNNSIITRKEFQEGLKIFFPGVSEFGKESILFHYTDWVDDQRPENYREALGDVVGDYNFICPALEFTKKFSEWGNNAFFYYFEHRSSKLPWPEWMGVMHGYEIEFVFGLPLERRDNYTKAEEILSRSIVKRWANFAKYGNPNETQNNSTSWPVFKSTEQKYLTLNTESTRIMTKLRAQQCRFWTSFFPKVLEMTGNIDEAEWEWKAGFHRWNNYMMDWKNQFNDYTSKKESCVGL

Structure (SMILES): CCN(CCCCOc1ccc(-c2cc(=O)c3c(O)cc(OCCCCN(CC)Cc4ccccc4)cc3o2)cc1)Cc1ccccc1
- IC50 [1]: 15.3 µM
- IC50 [2]: 5.8 µM
- inhibition [3]: 81.3%
- Activity [4]: Dose-dependent effect
- Activity [5]: 60%
- Activity [6]: Active
- Activity [7]: inactive
- IC50 [8]: 39.7 µM
- Activity [9]: Dose-dependent effect
- Activity [10]: Active
- Activity [11]: Active
- Activity [12]: Active
- Activity [13]: Active
- Activity [14]: 26.7%
- Activity [15]: 70%
- Activity [16]: 76.7%
- Activity [17]: 56.7%
- Activity [18]: 46.7%
- mortality at 12.5 ug/ml [19]: 100%
- mortality at 100 ug/ml [20]: 100%
- mortality at 200 ug/ml [21]: 100%
- Activity [22]: Dose-dependent effect
- Activity [23]: 12%
- Activity [24]: 96.56%
- Drug metabolism [25]: Metabolite_Detected
- Drug metabolism [26]: Metabolite_Detected
